The target in data set [1] is T1, recombinant, human protein tyrosine phosphatase (PTP) 1B (hPTP1B) (Homo sapiens, UniProt P18031).
T1 construct: made in house
T1 sequence (P18031 1-435): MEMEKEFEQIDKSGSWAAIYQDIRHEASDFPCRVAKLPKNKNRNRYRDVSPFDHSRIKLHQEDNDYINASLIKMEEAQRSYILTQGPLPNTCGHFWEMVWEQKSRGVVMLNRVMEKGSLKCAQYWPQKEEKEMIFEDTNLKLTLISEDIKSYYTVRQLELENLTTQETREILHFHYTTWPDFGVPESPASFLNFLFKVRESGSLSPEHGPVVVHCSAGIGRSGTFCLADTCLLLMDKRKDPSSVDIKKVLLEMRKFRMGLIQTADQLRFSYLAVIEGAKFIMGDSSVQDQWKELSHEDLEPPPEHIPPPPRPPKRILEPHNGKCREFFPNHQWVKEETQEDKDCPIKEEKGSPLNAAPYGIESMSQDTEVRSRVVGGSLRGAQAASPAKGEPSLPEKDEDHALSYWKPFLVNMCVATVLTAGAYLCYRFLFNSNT
In words: Inhibition of tri-phosphorylated insulin receptor dodecaphosphopeptide dephosphorylation by hPTP1B. Conditions: 50 μM IR triphosphopeptide substrate, 5 min preincubation and 5 min reaction at 37° C., malachite green-ammonium molybdate phosphate detection. The class given is biochemical.

A word on the IC50: it is the concentration that inhibits the measured activity by half. What is called melting point is the temperature of the solid-liquid transition.

With `O=C(O)COc1c(-c2cc(Cl)cc(Cl)c2)cc(C(=O)NCCCCCCc2ccccc2)cc1-c1cc(Cl)cc(Cl)c1` [Example 161, [3,5,3″,5″-Tetrachloro-5′-(6-phenyl-hexylcarbamoyl)-[1,1′;3′,1″]terphenyl-2′-yloxy]acetic acid], the melting point fell in the range of 151 to 159 °C. In data set [1], the IC50 came out at 33 nM.

Molecule `CCCCCCc1cc(-c2ccccc2)c(OCC(=O)O)c(-c2ccccc2)c1` [Example 169, (5′-Hexyl-[1,1′;3′,1″]terphenyl-2′-yloxy)acetic acid] displayed a melting point of 87 to 89 °C. In addition, in data set [1], the IC50 was determined as 905 nM.

In turn, `CCCCCCCCCc1cc(-c2ccccc2)c(OCC(=O)O)c(-c2ccccc2)c1` [Example 170, (5′-Nonyl-[1,1′;3′,1″]terphenyl-2′-yloxy)acetic acid] displayed a melting point of 63 to 65 °C. The IC50 in data set [1] is 178 nM.

`CCCCCCCCCCCCCCOc1cc(-c2ccccc2)c(OCC(=O)O)c(-c2ccccc2)c1` [Example 173, (5′-Tetradecyloxy-[1,1′;3′,1″]terphenyl-2′-yloxy)acetic acid]: the melting point was in the range of 89 to 90 °C. For the same molecule, the IC50 in data set [1] came out at 28 nM.

`O=C(O)COc1c(-c2ccccc2)cc(C(c2ccccc2)(c2ccccc2)c2ccccc2)cc1-c1ccccc1` [Example 174, (5′-Trityl-[1,1′;3′,1″]terphenyl-2′-yloxy)acetic acid] displayed a melting point of 211 to 214 °C. The IC50 in data set [1] is 633 nM.

In turn, `CCCCCCCCCCCCNC(=O)c1cc(-c2cccc(C(F)(F)F)c2)c(OCC(=O)O)c(-c2cccc(C(F)(F)F)c2)c1` [Example 175, (5′-Dodecylcarbamoyl-3,3″-bis-trifluoromethyl-{1,1′;3′,1″]terphenyl-2′-yloxy)-acetic acid] had a melting point of 154.3 to 158.2 °C. The IC50 in data set [1] was 50 nM.

In the case of `O=C(O)COc1c(-c2cccc(C(F)(F)F)c2)cc(C(=O)NCCCCCCc2ccccc2)cc1-c1cccc(C(F)(F)F)c1` [Example 189, [5′-(6-Phenyl-hexylcarbamoyl)-3,3″-bis-trifluoromethyl-[1,1′:3′,1″}terphenyl-2′-yloxy]-acetic acid], the melting point lay in the range of 166.5 to 168.8 °C. For the same molecule, in data set [1], the 50% inhibitory concentration (IC50) is 336 nM.

`O=C(NCCCCCCCCc1ccccc1)c1cc(-c2cccc(C(F)(F)F)c2)c(OCCCCc2nnn[nH]2)c(-c2cccc(C(F)(F)F)c2)c1` [Example 198]: the melting point lay within 145.4 to 150.8 °C. Besides, the IC50 in data set [1] turned out to be 217 nM.

Source of the values: patent US7008636B2, “2,3,5-substituted biphenyls useful in the treatment of insulin resistance and hyperglycemia” (Wyeth, priority 1998, dated 2006).
